From patent publication US4935509A (priority 1989, dated 1990)

Legend:
[1] = test system: P388 wild-type cells; experiment: MTT cell count (ID50), P388 wild-type leukemia cells in vitro; format: cell-based, murine; conditions: Mus musculus, P388, 120 h, read-out: ID50 P388/Wild
Procedure: (§1) In the various assays set forth below the colorimetric determination of the number of cells was carried out by the following procedure using MTT.
(§2) 3-(4,5-dimethylthiazol-2-yl)-2,5-dipenyl tetrazolium bromide (MTT) was prepared as a 5 mg/ml stock solution in phosphate buffered saline, filtered through a 0.22 μm filter and stored for up to two weeks at 4° C. while protected from light. For use in the assay it was diluted to 1 mg/ml in a pH 7.2 solution of phenol-red-free RPMI 1640 tissue culture medium supplemented with 1 mM sodium pyruvate and 50 μg/ml gentamycin. The assay was done in flat bottomed 96-well microtiter plates. Culture medium was removed from the wells by inverting and blotting the plate, fifty μl of MTT solution was added to the cells in each well, and each plate was incubated at 37° C. in an atmosphere of 5% CO2 in air. After incubation, each plate was centrifuged for 5 minutes at 8000×g and excess MTT removed by inverting and blotting. Fifty μl of 95% ethanol was added to each well and the plate was shaken (speed 6.5 for 15 minutes) to solubilize the formazan in each well. The optical density of each well was measured using an automatic plate reader with a test wavelength of 570 nm and a reference wavelength of 630 nm.
(§3) The differential in vitro activity of the above compounds as compared to vincristine and vinblastine with regard to P388 wild-type and P388 multiple-drug resistant leukemia was carried out by the following procedure.
(§4) Tissue culture-adapted lines of the P388 wild-type and P388 multiple-drug resistant cells (principally resistant to adriamycin) were obtained from the American Type Culture Collection, Rockville, MD. Experiments were conducted in 96-well microtiter plates with 300 cells from either line seeded in a volume of 200 μl of tissue culture medium (RPMI 1640 supplemented to 10% (v/v) with heat-inactivated fetal bovine serum (FBS) and to […] with 1-glutamine). Cells and varying log^10 dilutions of test compound were added to triplicate sets of wells on the same day and cultures were incubated for 5 days at 37° C. in a humidified atmosphere of 5% CO2 in air. The number of cells per well at the end of the experiment was determined colorimetrically by the reduction of MTT as described above.

[2] = test system: HT-29; experiment: MTT cell count (ID50), human colon cancer cell line HT-29; format: cell-based; conditions: HT-29, 144 h, read-out: ID50 HT-29
Procedure: as §1, §2
(§5) The in vitro effects of the novel compounds as compared to vinblastine and vincristine on three human colon cancer cell lines and one non-transformedhuman cell line were determined by the following procedure.
(§6) The non-transformed human fibroblast cell line, WI-38 and two of the human colon cancer cell lines, COLO-320-DM and HT-29, were obtained from the American Type Culture Collection, Rockville, MD and the third human colon cancer cell line, OM-1, was supplied by E. I. du Pont de Nemours and Co., Inc., Glenholden, PA. Both OM-1 and COLO-320-DM cells were maintained by serial passage in RPMI 1640 tissue culture medium supplemented to 10% (v/v) with heat-inactivated FBS. HT-29 cells were similarly maintained in McCoys 5A tissue culture medium supplemented with 10% heat-inactivated FBS. COLO-320-DM cells were detached by gentle scraping while HT-29 and OM-1 cells were detached using 0.25% trypsin and 0.05% trypsin, 0.5 mM EDTA solutions respectively. All cultures were incubated at 37° C. in a humidified environment of 5% CO2 in air. Experiments were conducted in 96-well flat-bottomed plates. The initial cell seeds per well for each cell line were 4,000 for WI- 38; 2,000 for COLO-320-DM; 750 for HT-29; and 3,000 for OM-1, each in the appropriate tissue culture medium. Cells were plated 24 hours before test compound was added to allow cells to recover from the effects of physical scraping and trypsinization. Varying log10 dilutions of drug were added to triplicate sets of wells and cultures were incubated for 6 days at 37° in a humidified atmosphere of 5% CO2 in air. The number of cells per well at the end of the experiment was determined colorimetrically by the reduction of MTT as described above and the results for each compounds shown in Table II. For purposes of comparison, the concentration of each test compound required to reduce the final cell number to one-half of the number in drug-free control cultures (ID50) is shown in Table II.

[3] = test system: COLO-320-DM; experiment: MTT cell count (ID50), human colon cancer cell line COLO-320-DM; format: cell-based; conditions: 144 h, read-out: ID50 COLO-320
Procedure: as §1, §2, §5, §6

[4] = test system: WI-38 fibroblast; experiment: MTT cell count (ID50), non-transformed human fibroblast cell line WI-38; format: cell-based; parameters: unit not given here; conditions: 6 days incubation
Procedure: as §1, §2, §5, §6

[5] = test system: OM-1; experiment: MTT cell count (ID50), human colon cancer cell line OM-1; format: cell-based; conditions: 144 h, read-out: ID50 OM-1
Procedure: as §1, §2, §5, §6

[6] = test system: P388 leukemia; experiment: Increase in mean survival time of mice bearing P388 leukemia; format: in vivo; conditions: i.p.; for Increase in MST: vs vehicle
Procedure: The efficacy of the remaining compounds is clearly documented by the fact that each increased the mean survival time of tumor-bearing mice in a dose-dependentmanner. […] The percent increase in mean survival time (MST) which appears in Table IV was calculated by the following formula: [formula]

[7] = test system: P388 leukemia; experiment: In vivo effect against P388 leukemia in mice (TD50, ED50, T.I.); conditions: for ED50: Mus musculus, P388, ip, read-out: ED50 (extrapolated values); for T.I. (therapeutic index): calculated from TD50 and ED50
From the text: (§7) The in vivo effect of the novel compounds of this invention against P388 leukemia as compared to vinblastine and vincristine, were compared by the following procedure.
(§8) P388 murine leukemia cells were obtained from Southern Research Institute, Birmingham, Ala., and were maintained by serial i.p. passage in C57BL/6 mice. Female (C57BL/6×DBA/2) F1 (BDF) mice of 6-8 weeks of age from Jackson Laboratories, Bar Harbor, Maine, received 1×10^6 P388 cells by i.p. inoculation on day 0. Compounds were dissolved in saline and administered i.p. to 10 tumor-bearing mice per dose level on days 0-4 and 7-9 using 5 to 10 log2 dilutions from a concentration known to be toxic. […] The therapeutic index (T.I.) for each compound was calculated by the formula: [formula]

[8] = as above; conditions: mouse, in vivo, ip
From the text: as §7, §8

[9] = test system: P388 multiple-drug resistant cells; experiment: cells; format: cell-based, murine; conditions: for Fold-resistance: ID50 resistant cell line divided by ID50 wildtype cell line, 7200 min; for IC50: Mus musculus, P388, 120 h, read-out: ID50 P3/88/resist.
Procedure: as §1, §2, §3, §4

Structure (SMILES)	IC50 [1]	IC50 [2]	IC50 [3]	ID50 WI-38 fibroblast [4]	IC50 [5]	Mean Survival Time ([6]; 0.06 mg/kg (optimal dose), vehicle 10.1 days)	Increase in MST ([6]; 0.06 mg/kg (optimal dose))	ED50 [7]	T.I. (therapeutic index) [7]	LD50 [8]	Fold-resistance [9]	IC50 [9]	Mean Survival Time ([6]; 0.015 mg/kg (optimal dose), vehicle 10.7 days)	Increase in MST ([6]; 0.015 mg/kg (optimal dose))	Mean Survival Time ([6]; 0.12 mg/kg (optimal dose), vehicle 9.6 days (A), 10.1 days (E))	Increase in MST ([6]; 0.12 mg/kg (optimal dose))
CC[C@]12C=CCN3CC[C@@]4(c5cc([C@@]6(C(=O)OC)C[C@H]7CN(CCc8c6[nH]c6ccccc86)C[C@H]6CCCC[C@H]67)c(OC)cc5N(C)[C@H]4[C@@](O)(C(=O)OC)[C@@H]1OC(C)=O)[C@@H]32 [C, (4aS,8aR,9R,11S)-15-[1,2,4,4a,5,6,7,8,8a,9,10,11,12,17-tetradecahydro-11-(methoxycarbonyl)-indolo(2',3':6,7,)azonino(1,2,3-bc)isoquinolin-11-yl]vindoline]	220 nM	300 nM	400 nM	5 × 10^-7	400 nM	21.1 days	109%	0.1 mg/kg	1.0	0.1 mg/kg	4	850 nM				
CC[C@]12C=CCN3CC[C@@]4(c5cc([C@@]6(C(=O)OC)C[C@H]7CN(CCc8c6[nH]c6ccccc86)C[C@H]6CCCC[C@H]67)c(OC)cc5N(C=O)[C@H]4[C@@](O)(C(=O)OC)[C@@H]1OC(C)=O)[C@@H]32 [D, (4aS,8aR,9R,11S)-15-[1,2,4,4a,5,6,7,8,8a,9,10,11,12,17-tetradecahydro-11-(methoxycarbonyl)-indolo(2',3':6,7,)azonino(1,2,3-bc)isoquinolin-11-yl]N-demethyl-N-formylvindoline]	55 nM	40 nM	400 nM	4 × 10^-7	60 nM			0.043 mg/kg	1.1	0.045 mg/kg	36	2000 nM	26.5 days	148%		
CC[C@]12C=CCN3CC[C@@]4(c5cc([C@@]6(C(=O)OC)C[C@H]7CN(CCc8c6[nH]c6ccccc86)C[C@@H]6CCCC[C@H]76)c(OC)cc5N(C)[C@H]4[C@@](O)(C(=O)OC)[C@@H]1OC(C)=O)[C@@H]32 [E, (4aR,8aS,9R,11S)-15-[1,2,4,4a,5,6,7,8,8a,9,10,11,12,17-tetradecahydro-11-(methoxycarbonyl)-indolo(2',3':6,7,)azonino(1,2,3-bc)isoquinolin-11-yl] vindoline]	68 nM	300 nM	300 nM	3 × 10^-7	400 nM				< 1	0.18 mg/kg	6	430 nM			21.5 days	113%
